In patent US20220280594A1, “APPLICATION OF POLYPEPTIDE OR DERIVATIVE THEREOF” (CHENGDU HUITAI BIOMEDICINE CO., LTD., priority 2019, published 2022):
Ends that are not written are not given here. PEG = not defined here

Assays:
N-cadherin = N-cadherin expression in SK-HEP-1 cells (ELISA); assay type: cell-based, human; details: SK-HEP-1, 10 μM, 24 hours, control group 1.12 ± 0.03
Experimental: (§1) SK-HEP-1 cells were cultured in vitro, cells in the logarithmic growth phase were collected, and the cells were seeded evenly in a 24-well plate at a density of 1-3×10^5 cells/well. The cells were cultured in a cell incubator for 4-5 h. PBS was added to the control group. PBS containing polypeptide or derivative thereof (N1-N12) was added to the treatment group. The final concentration of the polypeptide or derivative thereof in the well was 10 μM. After incubating for 24 hours, the cells were collected and the total protein was extracted. ELISA was used to detect the content of fibronectin in total protein.
The experimental method for testing the inhibition on the expression of N-cadherin in human liver adenocarcinoma cells (SK-HEP-1) by the polypeptide or derivative thereof (N1-N12) was as described in Example 19.

[1] = system: human lung cancer cells (A549) subcutaneous xenograft; test: lung cancer subcutaneous xenograft animal model, intratumoral injection; assay type: in vivo, mice (BALB/c-nu/nu); details: intratumoral 5 mg/kg once every other day
Experimental: Experimental animals: 4-6 weeks old female immunodeficiency mice (BALB/c-nu/nu, Beijing Vital River Laboratory Animal Technology Co., Ltd.).
Subcutaneous xenograft animal model. The number of cells inoculated subcutaneously vin mice was about 2×10^6/200 μL. When the volume of the subcutaneous tumor was greater than 100 mm^3, the mice were randomly divided into groups and subjected to treatment. When the mass volume of the tumors in model control group reached 2000 mm^3 or the animal dies, the treatment ended. The animals were dissected, the tumors were taken out, and the weight and volume of the tumors were measured. During the period of the entire experiment, the mice were observed and the body weight was measured every other day.
The method used for the drug efficacy test in the animal model of the subcutaneous xenograft derived from lung cancer cells was as described in Example 5. The tumor cells were human lung cancer cells (A549), and the route of administration was intratumoral injection. There were two groups: the model control group and the polypeptide or its derivative treatment group (N1-N12). The drug dosage of the treatment group was 5 mg/kg, once every other day and the treatment time was 10 days.
The procedure of the efficacy test in this example, route and dosage of administration were the same as in Example 9. The peptides used in the experiment were N13-N32. The treatment time was 20 days.

vimentin = vimentin expression in SK-HEP-1 cells (ELISA); assay type: cell-based, human; details: SK-HEP-1, 10 μM, 24 hours, control group 1.2 ± 0.01
Experimental: as §1
The experimental method for testing the inhibition on the expression of vimentin in human liver adenocarcinoma cells (SK-HEP-1) by the polypeptide or derivative thereof (N1-N12) was as described in Example 19.

[2] = system: human non-small cell lung cancer cells (A549); test: scratch assay, migration of A549 cells; assay type: cell-based; details: A549, 10 μM, 48 hours; control group 75.31 ± 8.19
Experimental: (§2) In the scratch assay, the cell migration rate was negatively correlated with the inhibitory effect of the drug component on tumor cell migration ability. The cell migration inhibition experiment was described as follows: tumor cells were cultured in vitro, cells in logarithmic growth phase were collected and seeded evenly in a 24-well plate at a density of 1-2×10^5 cells/well; the cells were cultured in a cell incubator until a monolayer was formed; a scratch tool was used to make a “-” (straight) scratch on the monolayer of cells; the cells were washed 1-3 times with PBS, and a medium (with 2% fetal bovine serum) containing specific test components was added to the culture. Experimental grouping: PBS control group; polypeptide or derivative thereof treatment group (N1-N54), 10 μM. Three independent parallel wells were set up in each group, and the cells were cultured continuously in a cell incubator for 48 hours. […] At least 3 representative images for each well were taken. ImageJ software was used to count the migration distance of the cells, and the cell migration rate was calculated as: cell migration rate (%)=(width of original scratch−width of current scratch)/width of original scratch×100.
This example was a scratch assay to evaluate the inhibitory effect of the polypeptide or derivative thereof (N1-N54) on the migration ability of human non-small cell lung cancer (A549). The experimental method was as described in Example 2.

fibronectin = fibronectin expression in SK-HEP-1 cells (ELISA); assay type: cell-based, human; details: SK-HEP-1, 10 μM, 24 hours, control group 1.62 ± 0.09
Experimental: as §1

[3] = system: human liver adenocarcinoma cells (SK-HEP-1); test: transwell migration assay, SK-HEP-1 cells; assay type: cell-based; details: SK-HEP-1 transwell migration, 10 μM, 24 hours; control group 1 782 ± 108, control group 2 768 ± 86
Experimental: The Transwell chamber system was used in the transwell cell migration experiment. The chamber has an upper layer and a lower layer, which are separated by an artificial semipermeable membrane in the middle. Cells that have migrated through the semi-permeable membrane will attach to the lower surface of the semi-permeable membrane. The migration ability is evaluated by counting the number of cells on the lower surface of the semi-permeable membrane. The number of cells that have migrated is negatively correlated with the inhibitory effect of the drug on the migration ability of the tumor cells. Transwell migration assay was performed as follows: tumor cells were cultured in vitro, cells in logarithmic growth phase were collected, and cell suspension was prepared with fresh serum-free medium at a density of 2-3×10^5 cells/mL. Cells were inoculated, 100 μL/well cell suspension (serum-free medium) in the upper chamber and 600 μL/well complete culture medium in the lower chamber. After incubated in 37° C., 5% CO2 incubator for 4-5 hours, serum-free medium (100 μL/well) was added to the control group, and serum-free medium containing polypeptide or derivative thereof (N1-N54) was added to the upper chamber of the treatment group (100 μL/well), the final concentration of the peptide or derivative thereof in the upper chamber was 10 μM. The cells were incubated continuously for 24 hours, and then fixed with methanol and stained with crystal violet. Images were taken under a microscope and the number of migrated cells was counted with ImageJ.
This example was a transwell cell migration experiment to evaluate the inhibitory effect of the polypeptide or derivative thereof (N1-N54) on the migration ability of human liver adenocarcinoma cells (SK-HEP-1). The experimental method was as described in Example 3.

[4] = system: human lung cancer cells (95D); test: scratch assay, migration of 95D cells; assay type: cell-based; details: 10 μM, 48 hours, control group 55.3 ± 3.19
Experimental: as §2
This example was a scratch assay to evaluate the inhibitory effect of the polypeptide or derivative thereof (N1-N54) on the migration ability of human lung cancer cells (95D). The experimental method was as described in Example 2.

[5] = 10 days, control 1269.32 ± 115.39
[6] = 20 days, control 1700.16 ± 305.72

| Substance | Relative protein level (mean ± SD, P), N-cadherin (N-cadherin) | Weight of tumor (g) (mean ± SD) ([1]; 10 days, control 1.45 ± 0.15) | Volume of tumor (mm^3) (mean ± SD) [1, 5] | Relative protein level (mean ± SD, P), vimentin (vimentin) | Migration rate (%) (mean ± SD, P) [2] | Relative protein level (mean ± SD, P), fibronectin (fibronectin) | Number of cells (mean ± SD, P), migrated cells [3] | Migration rate (%) (mean ± SD, P) [4] | Weight of tumor (g) (mean ± SD) ([1]; 20 days, control 1.92 ± 0.13) | Volume of tumor (mm^3) (mean ± SD) [1, 6] |
| --- | --- | --- | --- | --- | --- | --- | --- | --- | --- | --- |
| N1: polypeptide with the amino acid sequence set forth in SEQ ID NO: 1 (YRVRFLAKENVTQDAEDN) | 0.83 ± 0.04,*** | 0.87 ± 0.08 g | 851.64 ± 67.38 mm^3 | 0.97 ± 0.03, *** | 18.26 ± 8.77,** % | 1.3 ± 0.02,** | 87 ± 10,**** | 27.31 ± 4.35,** % |  |  |
| N2: SEQ ID NO: 1 with deletion of one amino acid (position 18) at the carboxyl terminal (YRVRFLAKENVTQDAED) | 0.93 ± 0.04,** | 0.86 ± 0.13 g | 809.89 ± 129.93 mm^3 | 0.91 ± 0.03, **** | 47.79 ± 3.12,** % | 1.23 ± 0.08,** | 104 ± 10,**** | 36.44 ± 4.16,** % |  |  |
| N26: SEQ ID NO: 1 with substitution A15R, addition of one amino acid at the amino terminal and one at the carboxyl terminal (FYRVRFLAKENVTQDREDNC) |  |  |  |  | 25.04 ± 6.01,** % |  | 68 ± 19,**** | 37.20 ± 5.94,** % | 0.8 ± 0.22 g | 1053.55 ± 175.83 mm^3 |
| N27: SEQ ID NO: 1 with addition of one amino acid at the carboxyl terminal and PEG modification at the carboxyl terminal (YRVRFLAKENVTQDAEDNC-{PEG}; reading uncertain) |  |  |  |  | 37.20 ± 6.23,** % |  | 469 ± 56,** | 37.20 ± 6.23,* % | 0.95 ± 0.22 g | 1059.51 ± 161.22 mm^3 |
| N28: SEQ ID NO: 1 with deletion of positions 1-2 and 18 and PEG modification at the amino terminal ({PEG}-VRFLAKENVTQDAED; reading uncertain) |  |  |  |  | 17.20 ± 6.23,*** % |  | 51 ± 25,**** | 28.08 ± 3.38,*** % | 0.81 ± 0.24 g | 1055.02 ± 222.45 mm^3 |
| N29: SEQ ID NO: 1 with deletion of positions 1-5 and 15-18 and PEG modification at the amino terminal ({PEG}-LAKENVTQD; reading uncertain) |  |  |  |  | 20.55 ± 3.73,*** % |  | 254 ± 14,**** | 30.30 ± 4.81,** % | 0.82 ± 0.22 g | 949 ± 227.4 mm^3 |
| N30: SEQ ID NO: 1 with deletion of positions 1-5 and 15-18 and PEG modification at the carboxyl terminal (LAKENVTQD-{PEG}; reading uncertain) |  |  |  |  | 24.57 ± 3.19,*** % |  | 156 ± 22,**** | 33.91 ± 3.36,** % | 0.9 ± 0.22 g | 913.9 ± 204.07 mm^3 |
| N31: SEQ ID NO: 1 with deletion of positions 3, 4, 11 and 15-18 and PEG modification at the carboxyl terminal (YRFLAKENTQD-{PEG}; reading uncertain) |  |  |  |  | 24.44 ± 8.15,** % |  | 90 ± 6,**** | 25.70 ± 3.17,** % | 0.71 ± 0.16 g | 900.88 ± 255.61 mm^3 |
| N32: SEQ ID NO: 1 with deletion of positions 1-3, addition of one amino acid and PEG modification at the carboxyl terminal (RFLAKENVTQDAEDNC-{PEG}; reading uncertain) |  |  |  |  | 28.06 ± 8.55,** % |  | 201 ± 13,**** | 29.47 ± 3.42,** % | 0.88 ± 0.25 g | 984.03 ± 184.86 mm^3 |
